Consider three molecules from publication PMC3402233 (International Journal of Pharmaceutics, 2012).

Structures are written as SMILES.

Series [1] can be described thus: Bi-directional transport across MDCKII-WT cell monolayers. The format is in vitro ADME, canine. Particulars: dog, MDCK.
The test system of a further series is MDCK-WT cell monolayers. Described as above. The class given is in vitro ADME, canine. The conditions noted are these: 5μM vandetanib.
The target in series [2] is T1, P-gp (MDR1) (Homo sapiens, UniProt P08183). Nature of the series: Bi-directional transport across MDCKII-MDR1 cell monolayers. The format is in vitro ADME.
Series [3] deals with T2, Bcrp1 (Mus musculus, UniProt Q7TMS5).
T2 sequence (Q7TMS5 1-657): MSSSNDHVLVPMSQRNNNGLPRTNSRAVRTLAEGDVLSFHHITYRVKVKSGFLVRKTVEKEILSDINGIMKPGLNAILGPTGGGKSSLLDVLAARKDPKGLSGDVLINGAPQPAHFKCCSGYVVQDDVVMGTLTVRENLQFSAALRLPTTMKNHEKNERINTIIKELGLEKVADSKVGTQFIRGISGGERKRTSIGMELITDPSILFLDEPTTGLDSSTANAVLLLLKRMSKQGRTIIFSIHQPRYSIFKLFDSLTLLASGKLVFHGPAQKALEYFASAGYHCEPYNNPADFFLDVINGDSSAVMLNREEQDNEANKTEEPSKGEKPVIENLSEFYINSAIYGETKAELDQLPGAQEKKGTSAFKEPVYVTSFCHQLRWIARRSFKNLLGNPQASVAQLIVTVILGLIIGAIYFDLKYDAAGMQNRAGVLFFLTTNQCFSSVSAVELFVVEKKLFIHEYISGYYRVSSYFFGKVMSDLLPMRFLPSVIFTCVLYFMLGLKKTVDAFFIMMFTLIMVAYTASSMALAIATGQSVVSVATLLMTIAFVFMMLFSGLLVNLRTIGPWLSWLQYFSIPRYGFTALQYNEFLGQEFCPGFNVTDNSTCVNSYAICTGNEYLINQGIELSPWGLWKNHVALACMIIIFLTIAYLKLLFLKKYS
Nature of the series: Bi-directional transport across MDCKII-Bcrp1 cell monolayers. The format is in vitro ADME, murine.

Series [4] is described as follows: Brain accumulation and plasma pharmacokinetics of vandetanib in FVB mice. The format is in vivo, male FVB wild type mice.
In series [5] the target is T1, P-gp (MDR1). Nature of the series: Cellular accumulation of vandetanib in MDCKII-MDR1 vs parent WT cells. Particulars: 100nM vandetanib, 60 min accumulation.
Another series deals with P-gp (Homo sapiens, UniProt P08183). The series is described as follows: P-gp inhibition: [3H]digoxin accumulation in MDCK-MDR1 cells. The format is cell-based.
Series [6] addresses T2, Bcrp1. The series is described as follows: Bcrp1 inhibition: [3H]abacavir accumulation in MDCK-Bcrp1 cells. The class given is cell-based, murine. The conditions noted are these: 10, 25 and 50μM inhibitor.
[7] abbreviates: male, FVB, mouse, plasma, iv, 5 mg/kg.

T1 sequence (P08183 whole entry): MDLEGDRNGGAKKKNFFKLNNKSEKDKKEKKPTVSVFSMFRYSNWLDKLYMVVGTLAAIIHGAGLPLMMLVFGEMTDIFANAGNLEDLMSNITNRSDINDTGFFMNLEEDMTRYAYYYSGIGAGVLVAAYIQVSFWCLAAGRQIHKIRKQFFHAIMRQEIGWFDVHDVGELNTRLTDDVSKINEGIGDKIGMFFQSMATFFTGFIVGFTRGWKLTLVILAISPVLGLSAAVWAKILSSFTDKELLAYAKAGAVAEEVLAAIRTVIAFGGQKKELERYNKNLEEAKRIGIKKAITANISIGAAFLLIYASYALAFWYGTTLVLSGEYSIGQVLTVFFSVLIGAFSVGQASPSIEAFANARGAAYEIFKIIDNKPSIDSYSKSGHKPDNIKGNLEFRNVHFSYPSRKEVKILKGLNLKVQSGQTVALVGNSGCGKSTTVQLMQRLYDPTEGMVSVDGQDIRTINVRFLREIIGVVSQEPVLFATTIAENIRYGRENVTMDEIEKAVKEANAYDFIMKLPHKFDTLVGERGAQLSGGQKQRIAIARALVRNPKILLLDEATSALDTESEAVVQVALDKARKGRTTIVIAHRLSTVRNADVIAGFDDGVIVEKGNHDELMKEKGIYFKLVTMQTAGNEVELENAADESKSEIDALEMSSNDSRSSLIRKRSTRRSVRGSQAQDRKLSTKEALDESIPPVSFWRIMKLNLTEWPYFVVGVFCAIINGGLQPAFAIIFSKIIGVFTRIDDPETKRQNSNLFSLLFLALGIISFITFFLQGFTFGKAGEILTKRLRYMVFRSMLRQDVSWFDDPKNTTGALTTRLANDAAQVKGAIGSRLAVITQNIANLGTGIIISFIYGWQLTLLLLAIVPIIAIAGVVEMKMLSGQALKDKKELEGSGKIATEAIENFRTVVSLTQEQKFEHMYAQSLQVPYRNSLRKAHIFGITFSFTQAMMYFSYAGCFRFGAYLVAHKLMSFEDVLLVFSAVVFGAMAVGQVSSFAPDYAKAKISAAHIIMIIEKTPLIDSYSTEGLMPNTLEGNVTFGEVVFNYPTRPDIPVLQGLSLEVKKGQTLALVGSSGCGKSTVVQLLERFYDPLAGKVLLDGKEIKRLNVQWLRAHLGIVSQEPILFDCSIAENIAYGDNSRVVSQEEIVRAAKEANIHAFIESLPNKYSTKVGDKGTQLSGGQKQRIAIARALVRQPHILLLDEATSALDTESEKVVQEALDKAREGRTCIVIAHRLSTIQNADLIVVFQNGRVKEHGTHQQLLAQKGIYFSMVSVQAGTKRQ
Sequence of P-gp (P08183 whole entry): as above

Consider `COc1cc2c(Nc3ccc(Br)cc3F)ncnc2cc1OCC1CCN(C)CC1` [Vandetanib], for which, in series [1], the Papp A→B at 240 min, 5 μM worked out at 7.57 ± 0.52 ×10⁻⁶ cm/s; the Papp B→A at 240 min, 5 μM came to 8.08 ± 0.17 ×10⁻⁶ cm/s; the efflux ratio at 240 min, 5 μM was determined as 1.06. In addition, the “Directionality of vandetanib transport across WT cells” value with MDCK-WT cell monolayers is listed as “no directionality in transport”. The “Directional flux of vandetanib across MDR1 transfected cells” value on P-gp (MDR1) [2] (5μM vandetanib) was “No significant difference was observed in the directional flux”. For the same molecule, on P-gp (MDR1) [2] (dog, MDCK-MDR1), the Papp A→B at 240 min, 5 μM was determined as 5.73 ± 0.29 ×10⁻⁶ cm/s; the apparent permeability from basolateral to apical (Papp B→A) at 240 min, 5 μM was determined as 4.66 ± 0.26 ×10⁻⁶ cm/s; the efflux ratio at 240 min, 5 μM worked out at 0.81. On Bcrp1 [3], the Papp A→B at 240 min, 5 μM was determined as 5.66 ± 1.26 ×10⁻⁶ cm/s; the Papp B→A at 240 min, 5 μM was 42.3 ± 2.64 ×10⁻⁶ cm/s; the efflux ratio at 240 min, 5 μM is 7.5. In series [4] (male, FVB, mouse, brain, iv, 5 mg/kg), this molecule showed an AUC(0-t) of 1050 ng·h/mL. In series [4] (setting [7]), this molecule had an exposure AUC(0-t) of 5090 ng·h/mL, a Vd of 1.3 L/kg and a clearance of 9.36 mL/min/kg. In addition, the “Brain concentrations compared with plasma concentrations” value in series [4] (vandetanib 5mg/kg i.v. alone, 15, 30, 60 and 120min) is reported as “Brain concentrations were significantly lower than the plasma concentration”. On P-gp (MDR1) [5], the “Vandetanib accumulation in MDR1 overexpressing cells versus WT cells” value was “not statistically different from WT cells”.
As for `CO[C@H]1C[C@@H]2CC[C@@H](C)[C@@](O)(O2)C(=O)C(=O)N2CCCC[C@H]2C(=O)O[C@H]([C@H](C)C[C@@H]2CC[C@@H](OCCO)[C@H](OC)C2)CC(=O)[C@H](C)/C=C(\C)[C@@H](O)[C@@H](OC)C(=O)[C@H](C)C[C@H](C)/C=C/C=C/C=C/1C` [everolimus], the IC50 against P-gp was found to be 3 µM. The “Intracellular accumulation of [3H]abacavir in MDCK-Bcrp1 cells in the presence of inhibitor” value on Bcrp1 [6] was “increased significantly”.
For `CO[C@H]1C[C@@H]2CC[C@@H](C)[C@@](O)(O2)C(=O)C(=O)N2CCCC[C@H]2C(=O)O[C@H]([C@H](C)C[C@@H]2CC[C@@H](OC(=O)C(C)(CO)CO)[C@H](OC)C2)CC(=O)[C@H](C)/C=C(\C)[C@@H](O)[C@@H](OC)C(=O)[C@H](C)C[C@H](C)/C=C/C=C/C=C/1C` [temsirolimus], in that order: 3.5 µM and “increased significantly”.

As usually defined, the Papp A→B is the apparent permeability from the apical to the basolateral side of a cell layer. High values mean fast passage, low ones slow passage. In general, Papp B→A refers to how fast a substance crosses the layer from the basolateral side. By efflux ratio is commonly meant a quotient of directional permeabilities that is used to spot active efflux. By AUC(0-t) is commonly meant the area under the concentration-time curve up to a stated or last time point. A higher AUC(0-t) goes with more exposure. As a reminder, the Vd is a proportionality between amount in the body and measured concentration, not a real space. Higher therefore signals extensive tissue distribution. In general, clearance refers to the volume of plasma or blood freed of the substance per unit of time. As usually defined, the IC50 is the concentration that gives 50% inhibition. A low value points to inhibition by little substance.
